Data: US12636322B2, “Bacterial strain with high cellulolytic activity” (INSTITUT NATIONAL SUPERIEUR DES SCIENCES AGRONOMIQUES DE …, priority 2021, dated 2026)

Test system: F. succinogenes HC4
Experiment: Phenotypic tests for antibiotic resistance
Assay type: cell-based, Fibrobacter succinogenes
Conditions: liquid filter paper semi-synthetic medium, anaerobic, 48 hours at 38° C.
Experimental: Eight antibiotics were tested according to EFSA recommendations for Gram-negative bacteria (31). Before being added to the filter paper semi-synthetic medium, the antibiotics were sterilized by filtration (0.22 μm filters). 24-hours cultures of strain HC4 were inoculated into media containing each antibiotic. A positive control without antibiotics was inoculated from the same culture of strain HC4 and two cultures were prepared for each condition. After 48 hours of incubation at 38° C., the observation of filter paper degradation allowed estimating the bacterial growth. In case of no degradation, a sample of liquid was taken and frozen at −20° C. for further determination of succinate production.

First: CC1(C)S[C@@H]2[C@H](NC(=O)[C@H](N)c3ccccc3)C(=O)N2[C@H]1C(=O)O [Ampicillin]
Second: C[C@@H]1O[C@@H]1P(=O)(O)O [Fosfomycin]
The “Concentrations to inhibit growth” value of the first is 16-fold lower: 32 mg/L for the first, 512 mg/L for the second.

Compared with NC[C@H]1O[C@H](O[C@H]2[C@H](O)[C@@H](O[C@H]3O[C@H](CO)[C@@H](O)[C@H](N)[C@H]3O)[C@H](N)C[C@@H]2N)[C@H](O)[C@@H](O)[C@@H]1O [Kanamycin], [H]/N=C(/N)N[C@H]1[C@H](O)[C@@H](O)[C@H](O[C@@H]2O[C@@H](C)[C@](O)(C=O)[C@H]2O[C@@H]2O[C@@H](CO)[C@H](O)[C@@H](O)[C@@H]2NC)[C@@H](N/C(N)=N\[H])[C@@H]1O [Streptomycin] is 3.9-fold lower in “Concentrations to inhibit growth” value: 8000 mg/L for the first, 2048 mg/L for the second.

Going from CN(C)[C@@H]1C(=O)C(C(N)=O)=C(O)[C@@]2(O)C(=O)C3=C(O)c4c(O)cccc4[C@@](C)(O)[C@H]3C[C@@H]12 [Tetracyclin] to Colistin, the “Concentrations to inhibit growth” value rises from 1 mg/L to 64 mg/L (64-fold).

In the case of Gentamicin, the “Concentrations to inhibit growth” value is reported as 128 mg/L.
